Measurements: patent publication US10131652B2, “Pyrimidinyloxy benzene derivatives as herbicides” (E. I. DU PONT DE NEMOURS AND COMPANY, priority 2014, dated 2018)
Like-named read-outs stand apart in the source and are kept apart here.

Experiments:
Experiment in all cases: Test D pre-/postemergence plant response
Assay type in all cases: in vivo
[1] = test system: pigweed (Amaranthus retroflexus); details: Amaranthus retroflexus; for pest or weed control at 31 g/ha: 31 g ai/ha; for pest or weed control at 62 g/ha: 62 g ai/ha; for pest or weed control at 125 g/ha: 125 g ai/ha
Summary of the method: (§1)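 Preemergence: seeds in loam/sand blend treated with test chemicals in non-phytotoxic solvent with surfactant; postemergence: plants at 2–18 cm (1- to 4-leaf stage) in peat-based medium sprayed likewise. Greenhouse 13 to 15 days, then visual rating vs controls, 0 (no effect) to 100 (complete control).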

[2] = test system: johnsongrass (Sorghum halepense); details: Sorghum halepense; for pest or weed control at 31 g/ha: 31 g ai/ha; for pest or weed control at 62 g/ha: 62 g ai/ha; for pest or weed control at 125 g/ha: 125 g ai/ha
Summary of the method: as §1

[3] = test system: winter wheat (Triticum aestivum); details: Triticum aestivum; for plant injury at 31 g/ha: 31 g ai/ha; for plant injury at 62 g/ha: 62 g ai/ha; for plant injury at 125 g/ha: 125 g ai/ha
Summary of the method: as §1

[4] = test system: lambsquarters (Chenopodium album); details: Chenopodium album; for pest or weed control at 31 g/ha: 31 g ai/ha; for pest or weed control at 62 g/ha: 62 g ai/ha; for pest or weed control at 125 g/ha: 125 g ai/ha
Summary of the method: as §1

[5] = test system: blackgrass (Alopecurus myosuroides); details: Alopecurus myosuroides; for pest or weed control at 16 g/ha: 16 g ai/ha; for pest or weed control at 31 g/ha: 31 g ai/ha; for pest or weed control at 62 g/ha: 62 g ai/ha; for pest or weed control at 125 g/ha: 125 g ai/ha
Summary of the method: as §1

[6] = test system: yellow nutsedge (Cyperus esculentus); details: Cyperus; for pest or weed control at 31 g/ha: 31 g ai/ha; for pest or weed control at 62 g/ha: 62 g ai/ha; for pest or weed control at 125 g/ha: 125 g ai/ha
Summary of the method: as §1

[7] = test system: morningglory (Ipomoea coccinea); details: Ipomoea; for pest or weed control at 31 g/ha: 31 g ai/ha; for pest or weed control at 62 g/ha: 62 g ai/ha; for pest or weed control at 125 g/ha: 125 g ai/ha
Summary of the method: as §1

corn (Zea mays) = details: Zea mays; for Corn plant response rating (crop injury, 0 = no effect, 100 = complete kill) at 62 g/ha: 62 g ai/ha
Summary of the method: as §1

[8] = test system: galium (catchweed bedstraw, Galium aparine); details: Galium; for pest or weed control at 31 g/ha: 31 g ai/ha; for pest or weed control at 62 g/ha: 62 g ai/ha; for pest or weed control at 125 g/ha: 125 g ai/ha
Summary of the method: as §1

[9] = post-emergence, Postemergence, scale 0 to 100, 0 no effect, 100 complete control, read-out: Plant response rating, Pigweed
[10] = pre-emergence, Preemergence, scale 0 to 100 (0 no effect, 100 complete control), read-out: Plant response rating, Pigweed
[11] = post-emergence, Postemergence, scale 0 to 100, 0 no effect, 100 complete control, read-out: Plant response rating, Johnsongrass
[12] = pre-emergence, Preemergence, scale 0 to 100 (0 no effect, 100 complete control), read-out: Plant response rating, Johnsongrass
[13] = post-emergence, Postemergence, scale 0 to 100, 0 no effect, 100 complete control, read-out: Plant response rating, Wheat
[14] = pre-emergence, Preemergence, scale 0 to 100 (0 no effect, 100 complete control), read-out: Plant response rating, Wheat
[15] = post-emergence, Postemergence, scale 0 to 100, 0 no effect, 100 complete control, read-out: Plant response rating, Lambsquarters
[16] = pre-emergence, Preemergence, scale 0 to 100 (0 no effect, 100 complete control), read-out: Plant response rating, Lambsquarters
[17] = post-emergence, Postemergence, scale 0 to 100 (0 no effect, 100 complete control), read-out: Blackgrass plant response rating
[18] = post-emergence, Postemergence, scale 0 to 100, 0 no effect, 100 complete control, read-out: Plant response rating, Blackgrass
[19] = pre-emergence, Preemergence, scale 0 to 100 (0 no effect, 100 complete control), read-out: Plant response rating, Blackgrass
[20] = post-emergence, Postemergence, scale 0 to 100, 0 no effect, 100 complete control, read-out: Plant response rating, Nutsedge, Yellow
[21] = pre-emergence, Preemergence, scale 0 to 100 (0 no effect, 100 complete control), read-out: Plant response rating, Nutsedge, Yellow
[22] = post-emergence, Postemergence, scale 0 to 100, 0 no effect, 100 complete control, read-out: Plant response rating, Morningglory
[23] = pre-emergence, Preemergence, scale 0 to 100 (0 no effect, 100 complete control), read-out: Plant response rating, Morningglory
[24] = post-emergence, Postemergence, scale 0 to 100, 0 no effect, 100 complete control, read-out: Plant response rating, Galium
[25] = pre-emergence, Preemergence, scale 0 to 100 (0 no effect, 100 complete control), read-out: Plant response rating, Galium

Fc1cccc(Oc2ncc(Br)cn2)c1-c1cc(C(F)F)no1 [Compound 145, 5-bromo-2-[2-[3-(difluoromethyl)-5-isoxazolyl]-3-fluorophenoxy]pyrimidine]
98%: pest or weed control at 62 g/ha [1, 9] | pest or weed control at 125 g/ha [1, 9] | pest or weed control at 31 g/ha [8, 25]
40%: pest or weed control at 125 g/ha [2, 11]
100%: pest or weed control at 125 g/ha ([1]; pre-emergence, Preemergence, read-out: Plant response rating (scale 0 to 100), Pigweed) | pest or weed control at 16 g/ha ([1]; pre-emergence, Preemergence, 16 g ai/ha, scale 0 to 100 (0 no effect, 100 complete control), read-out: Plant response rating, Pigweed) | pest or weed control at 31 g/ha [1, 10] | pest or weed control at 62 g/ha [1, 10] | pest or weed control at 125 g/ha ([4]; pre-emergence, Preemergence, read-out: Plant response rating (scale 0 to 100), Lambsquarters) | pest or weed control at 16 g/ha ([4]; pre-emergence, Preemergence, 16 g ai/ha, scale 0 to 100 (0 no effect, 100 complete control), read-out: Plant response rating, Lambsquarters) | pest or weed control at 31 g/ha [4, 16] | pest or weed control at 62 g/ha [4, 16] | pest or weed control at 125 g/ha ([7]; pre-emergence, Preemergence, read-out: Plant response rating (scale 0 to 100), Morningglory) | pest or weed control at 125 g/ha ([8]; pre-emergence, Preemergence, read-out: Plant response rating (scale 0 to 100), Galium) | pest or weed control at 62 g/ha [8, 25]
45%: pest or weed control at 125 g/ha ([6]; pre-emergence, Preemergence, read-out: Plant response rating (scale 0 to 100), Nutsedge, Yellow) | plant injury at 125 g/ha (corn (Zea mays); pre-emergence, Preemergence, 125 g ai/ha, read-out: Plant response rating (scale 0 to 100), Corn)
95%: pest or weed control at 31 g/ha ([1]; post-emergence, Postemergence, scale 0 to 100 (0 no effect, 100 complete control), read-out: Pigweed plant response rating) | pest or weed control at 125 g/ha ([2]; pre-emergence, Preemergence, read-out: Plant response rating (scale 0 to 100), Johnsongrass) | pest or weed control at 125 g/ha [4, 15] | pest or weed control at 125 g/ha ([5]; pre-emergence, Preemergence, read-out: Plant response rating (scale 0 to 100), Blackgrass) | pest or weed control at 62 g/ha [5, 19]
20%: pest or weed control at 31 g/ha [5, 17]
15%: pest or weed control at 16 g/ha [5, 17] | pest or weed control at 16 g/ha [5, 19] | pest or weed control at 16 g/ha ([7]; pre-emergence, Preemergence, 16 g ai/ha, scale 0 to 100 (0 no effect, 100 complete control), read-out: Plant response rating, Morningglory)
10%: pest or weed control at 16 g/ha ([2]; pre-emergence, Preemergence, 16 g ai/ha, scale 0 to 100 (0 no effect, 100 complete control), read-out: Plant response rating, Johnsongrass) | plant injury at 125 g/ha [3, 13] | plant injury at 125 g/ha ([3]; pre-emergence, Preemergence, read-out: Plant response rating (scale 0 to 100), Wheat) | pest or weed control at 125 g/ha [6, 20] | Corn plant response rating (crop injury, 0 = no effect, 100 = complete kill) at 125 g/ha (corn (Zea mays); post-emergence, Postemergence, 125 g ai/ha, scale 0 to 100, 0 no effect, 100 complete control) | Corn plant response rating (crop injury, 0 = no effect, 100 = complete kill) at 62 g/ha (corn (Zea mays); pre-emergence, Preemergence, scale 0 to 100 (0 no effect, 100 complete control))
80%: pest or weed control at 125 g/ha [5, 18] | pest or weed control at 125 g/ha [7, 22] | pest or weed control at 31 g/ha ([8]; post-emergence, Postemergence, scale 0 to 100 (0 no effect, 100 complete control), read-out: Galium plant response rating) | pest or weed control at 62 g/ha [8, 24]
55%: pest or weed control at 31 g/ha [7, 23]
85%: pest or weed control at 31 g/ha ([4]; post-emergence, Postemergence, scale 0 to 100 (0 no effect, 100 complete control), read-out: Lambsquarters plant response rating) | pest or weed control at 62 g/ha [4, 15] | pest or weed control at 31 g/ha ([7]; post-emergence, Postemergence, scale 0 to 100 (0 no effect, 100 complete control), read-out: Morningglory plant response rating) | pest or weed control at 62 g/ha [7, 22]
30%: pest or weed control at 62 g/ha [6, 21]
90%: pest or weed control at 62 g/ha [2, 12] | pest or weed control at 31 g/ha [5, 19] | pest or weed control at 62 g/ha [7, 23] | pest or weed control at 125 g/ha [8, 24] | pest or weed control at 16 g/ha ([8]; pre-emergence, Preemergence, 16 g ai/ha, scale 0 to 100 (0 no effect, 100 complete control), read-out: Plant response rating, Galium)
25%: pest or weed control at 62 g/ha [5, 18]
75%: pest or weed control at 31 g/ha [2, 12]
0%: plant injury at 16 g/ha ([3]; pre-emergence, Preemergence, 16 g ai/ha, scale 0 to 100 (0 no effect, 100 complete control), read-out: Plant response rating, Wheat) | plant injury at 31 g/ha [3, 14] | pest or weed control at 16 g/ha ([6]; pre-emergence, Preemergence, 16 g ai/ha, scale 0 to 100 (0 no effect, 100 complete control), read-out: Plant response rating, Nutsedge, Yellow) | pest or weed control at 31 g/ha [6, 21] | Corn plant response rating (crop injury, 0 = no effect, 100 = complete kill) at 16 g/ha (corn (Zea mays); pre-emergence, Preemergence, 16 g ai/ha, scale 0 to 100 (0 no effect, 100 complete control))
5%: pest or weed control at 31 g/ha ([2]; post-emergence, Postemergence, scale 0 to 100 (0 no effect, 100 complete control), read-out: Johnsongrass plant response rating) | pest or weed control at 62 g/ha [2, 11] | plant injury at 31 g/ha ([3]; post-emergence, Postemergence, scale 0 to 100 (0 no effect, 100 complete control), read-out: Wheat plant response rating) | plant injury at 62 g/ha [3, 13] | plant injury at 62 g/ha [3, 14] | pest or weed control at 31 g/ha ([6]; post-emergence, Postemergence, scale 0 to 100 (0 no effect, 100 complete control), read-out: Nutsedge, Yellow plant response rating) | pest or weed control at 62 g/ha [6, 20] | plant injury at 16 g/ha (corn (Zea mays); post-emergence, Postemergence, 16 g ai/ha, scale 0 to 100 (0 no effect, 100 complete control), read-out: Corn plant response rating) | plant injury at 31 g/ha (corn (Zea mays); post-emergence, Postemergence, 31 g ai/ha, scale 0 to 100 (0 no effect, 100 complete control), read-out: Corn plant response rating) | Corn plant response rating (crop injury, 0 = no effect, 100 = complete kill) at 62 g/ha (corn (Zea mays); post-emergence, Postemergence, scale 0 to 100, 0 no effect, 100 complete control) | Corn plant response rating (crop injury, 0 = no effect, 100 = complete kill) at 31 g/ha (corn (Zea mays); pre-emergence, Preemergence, 31 g ai/ha, scale 0 to 100 (0 no effect, 100 complete control))
